Like-named read-outs stand apart in the source and are kept apart here.
Key:
Format in all cases: cell-based
[1] = molecular target: T1, rat TRPV2 (Rattus norvegicus, UniProt Q9WUD2); experiment: TRPV2-mediated elevation of intracellular Ca2+ (Fluo-4) in transfected HEK-293 cells; conditions: for IC50: compound added 5 min before agonist CBD 2 μM; for TRPV2 Efficacy (% IM 4 μM): percentage of the response to ionomycin 4 μM, HEK-293
T1 construct: expressed in transfected cells; host or cells: HEK-293
T1 sequence (Q9WUD2 1-761): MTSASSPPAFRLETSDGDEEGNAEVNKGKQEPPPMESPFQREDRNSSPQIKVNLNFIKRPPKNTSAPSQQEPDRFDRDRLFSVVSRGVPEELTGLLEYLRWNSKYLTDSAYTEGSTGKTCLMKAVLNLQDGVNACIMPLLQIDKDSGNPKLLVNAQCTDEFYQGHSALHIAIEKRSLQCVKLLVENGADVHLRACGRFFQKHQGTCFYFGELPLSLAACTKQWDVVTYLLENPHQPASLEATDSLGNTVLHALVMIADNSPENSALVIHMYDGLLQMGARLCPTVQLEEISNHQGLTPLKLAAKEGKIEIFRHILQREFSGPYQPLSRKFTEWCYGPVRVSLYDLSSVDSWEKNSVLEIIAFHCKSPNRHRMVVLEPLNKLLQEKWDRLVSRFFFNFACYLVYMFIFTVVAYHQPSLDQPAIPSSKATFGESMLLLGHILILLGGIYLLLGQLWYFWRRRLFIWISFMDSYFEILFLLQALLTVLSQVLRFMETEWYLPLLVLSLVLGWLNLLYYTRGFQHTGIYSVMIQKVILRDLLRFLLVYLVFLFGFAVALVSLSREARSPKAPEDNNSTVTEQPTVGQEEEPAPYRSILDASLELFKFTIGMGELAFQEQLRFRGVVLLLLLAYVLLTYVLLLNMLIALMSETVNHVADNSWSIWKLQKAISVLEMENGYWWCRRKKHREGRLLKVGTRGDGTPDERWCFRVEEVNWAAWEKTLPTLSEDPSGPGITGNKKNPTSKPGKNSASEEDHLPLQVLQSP
Description: (§1) Assays of rat TRPA1, TRPV2, TRPV3, TRPV4, and TRPM8 or human TRPV1 mediated elevation of intracellular Ca ^2+ in transfected HEK-293 cells were performed with a continuous monitoring of [Ca ^2+]i during the experiments. […] Cell fluorescence before and after the addition of various concentrations of test compounds was measured, normalizing the effects against the response to ionomycin (IM, 4 μM). The values of the effect on [Ca^2+]i in HEK-293 cells not transfected were used as baseline and subtracted from the values obtained from transfected cells. For TRPA1, agonist efficacy was expressed as a percentage of the effect on [Ca ^2+]i observed with 100 μM allylisothiocyanate. […] In the TRPV3 assay, TRPV3-expressing HEK293 cells were first sensitized with the structurally unrelated agonist 2-aminoethoxydiphenyl borate (100 μM). Antagonist/desensitizing behavior is evaluated against the agonist of the TRP analyzed by adding the compounds directly in the quartz cuvette 5 min before stimulation of cells with the agonist. […] Dose-response curve fitting (sigmoidal dose-response variable slope) and parameter estimation were performed with Graph-Pad Prism8 (GraphPad Software Inc., San Diego, CA, USA). All determinations were performed at least in triplicate.

[2] = molecular target: T2, rat TRPA1 (Rattus norvegicus, UniProt Q6RI86); experiment: TRPA1-mediated elevation of intracellular Ca2+ (Fluo-4) in transfected HEK-293 cells; conditions: for TRPA1 Efficacy (%ITC 100 μM): percentage of the effect of 100 μM allylisothiocyanate on [Ca2+]i
T2 construct: expressed in transfected cells; host or cells: HEK-293
T2 sequence (Q6RI86 whole entry): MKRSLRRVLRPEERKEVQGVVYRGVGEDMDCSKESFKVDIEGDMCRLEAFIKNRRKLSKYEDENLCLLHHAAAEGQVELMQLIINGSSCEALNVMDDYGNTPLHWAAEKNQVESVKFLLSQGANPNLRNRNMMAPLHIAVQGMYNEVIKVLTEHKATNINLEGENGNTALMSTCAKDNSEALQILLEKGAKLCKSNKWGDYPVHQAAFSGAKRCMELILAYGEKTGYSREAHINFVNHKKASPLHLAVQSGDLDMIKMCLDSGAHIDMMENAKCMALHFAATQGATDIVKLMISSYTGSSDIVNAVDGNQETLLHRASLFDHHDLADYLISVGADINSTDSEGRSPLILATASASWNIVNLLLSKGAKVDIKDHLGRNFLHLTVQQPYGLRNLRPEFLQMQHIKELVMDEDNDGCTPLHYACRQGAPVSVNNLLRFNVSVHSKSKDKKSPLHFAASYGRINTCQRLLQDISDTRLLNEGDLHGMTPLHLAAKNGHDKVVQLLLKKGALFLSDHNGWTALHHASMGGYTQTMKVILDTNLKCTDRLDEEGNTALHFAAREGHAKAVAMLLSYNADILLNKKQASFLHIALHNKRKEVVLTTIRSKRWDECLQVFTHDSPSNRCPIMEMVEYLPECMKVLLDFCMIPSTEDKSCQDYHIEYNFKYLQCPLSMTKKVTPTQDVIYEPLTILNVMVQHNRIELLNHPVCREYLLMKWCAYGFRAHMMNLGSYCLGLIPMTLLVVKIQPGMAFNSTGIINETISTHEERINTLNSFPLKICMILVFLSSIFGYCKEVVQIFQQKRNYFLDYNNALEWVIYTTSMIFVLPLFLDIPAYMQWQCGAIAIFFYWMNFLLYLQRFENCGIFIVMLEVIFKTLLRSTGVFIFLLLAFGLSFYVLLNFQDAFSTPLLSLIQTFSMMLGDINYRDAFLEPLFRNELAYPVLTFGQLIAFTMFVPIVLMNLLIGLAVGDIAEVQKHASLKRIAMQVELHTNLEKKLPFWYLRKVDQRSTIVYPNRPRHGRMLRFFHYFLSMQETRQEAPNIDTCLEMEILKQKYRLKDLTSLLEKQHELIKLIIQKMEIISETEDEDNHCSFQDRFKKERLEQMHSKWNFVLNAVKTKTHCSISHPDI
Description: as §1

[3] = molecular target: T3, human TRPV1 (Homo sapiens, UniProt Q8NER1); experiment: TRPV1-mediated elevation of intracellular Ca2+ (Fluo-4) in transfected HEK-293 cells; conditions: for TRPV1 Efficacy (% IM 4 μM): percentage of the response to ionomycin 4 μM, HEK-293
T3 construct: expressed in transfected cells; host or cells: HEK-293
T3 sequence (Q8NER1 whole entry): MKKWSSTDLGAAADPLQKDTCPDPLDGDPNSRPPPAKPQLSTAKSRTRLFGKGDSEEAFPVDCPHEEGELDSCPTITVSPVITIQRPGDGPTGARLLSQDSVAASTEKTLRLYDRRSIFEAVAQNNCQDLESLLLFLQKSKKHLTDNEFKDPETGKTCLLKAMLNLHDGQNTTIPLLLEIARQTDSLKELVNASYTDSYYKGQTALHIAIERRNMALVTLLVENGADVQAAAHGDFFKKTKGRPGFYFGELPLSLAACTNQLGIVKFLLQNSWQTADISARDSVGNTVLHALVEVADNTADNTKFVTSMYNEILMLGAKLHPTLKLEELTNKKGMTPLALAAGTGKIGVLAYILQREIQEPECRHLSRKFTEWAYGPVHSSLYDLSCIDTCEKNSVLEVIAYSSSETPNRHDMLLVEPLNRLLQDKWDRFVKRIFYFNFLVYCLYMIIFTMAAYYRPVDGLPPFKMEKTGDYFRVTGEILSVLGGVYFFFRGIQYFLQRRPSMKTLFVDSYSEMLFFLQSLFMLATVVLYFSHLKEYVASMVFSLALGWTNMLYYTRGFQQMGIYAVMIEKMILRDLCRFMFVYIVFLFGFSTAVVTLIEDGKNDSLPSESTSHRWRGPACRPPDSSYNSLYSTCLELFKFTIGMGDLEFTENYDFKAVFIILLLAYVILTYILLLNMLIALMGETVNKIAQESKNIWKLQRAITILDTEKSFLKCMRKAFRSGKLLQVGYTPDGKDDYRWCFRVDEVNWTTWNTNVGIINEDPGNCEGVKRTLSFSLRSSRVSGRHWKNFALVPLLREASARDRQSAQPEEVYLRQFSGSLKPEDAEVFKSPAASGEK
Description: as §1

[4] = antagonist/desensitizing, read-out: IC50 TRPV2
[5] = antagonist/desensitizing, compound added 5 min before agonist AITC 100 μM, read-out: IC50 TRPA1
[6] = half-maximal increase in [Ca2+]i, HEK-293, read-out: TRPA1 Potency EC50
[7] = antagonist/desensitizing, compound added 5 min before agonist capsaicin 0.1 μM, read-out: IC50 TRPV1
[8] = antagonist/desensitizing, compound added 5 min before agonist capsaicin 0.1 μM
[9] = IC50 TRPV2, antagonist/desensitizing

In the case of CCCCCCCc1cc(O)c2c(c1)OC(C)(CCC=C(C)C)C=C2 (stereo not shown) [8c, Depentyl-5-n-heptylcannabichromene], the IC50 [1, 4] is reported as 9 ± 0.8 µM, the “TRPV2 Efficacy (% IM 4 μM)” value [1] is reported as under 10% and the IC50 [2, 5] is reported as 3.8 ± 0.35 µM. The EC50 [2, 6] was 1.2 ± 0.2 µM, the “TRPA1 Efficacy (%ITC 100 μM)” value ([2]; HEK-293) was 97.8 ± 3.3% and the IC50 [3, 7] was over 100 µM. The “TRPV1 Efficacy (% IM 4 μM)” value [3] was under 10%.
With C=C(C)[C@@H]1CCC(C)=C[C@H]1c1c(O)cc(C(C)(C)CCCCCC)cc1O [1b, Depentyl-α,α-dimethylheptyl-cannabidiol] the IC50 [1, 4] was 16.8 ± 0.2 µM, the “TRPV2 Efficacy (% IM 4 μM)” value [1] was under 10% and the IC50 [2, 5] was 0.51 ± 0.03 µM. For the same compound, the EC50 [2, 6] was 0.4 ± 0.15 µM, the “TRPA1 Efficacy (%ITC 100 μM)” value ([2]; HEK-293) was 133.4 ± 5.3% and the “IC50 TRPV1” value [3, 8] was “inactive”. For the same compound, the IC50 [3, 7] was over 100 µM and the “TRPV1 Efficacy (% IM 4 μM)” value [3] was under 10%.
With CCCCC(C)(C)c1cc(O)c2c(c1)OC(C)(CCC=C(C)C)C=C2 (stereo not drawn) [8d, Depentyl-5-α,α-dimethylpentylcannabichromene] the IC50 [1, 4] was 13.3 ± 1.1 µM, the “TRPV2 Efficacy (% IM 4 μM)” value [1] was under 10% and the IC50 [2, 5] was 0.4 ± 0.01 µM. For the same compound, the EC50 [2, 6] was 0.15 ± 0.03 µM, the “TRPA1 Efficacy (%ITC 100 μM)” value ([2]; HEK-293) was 98.7 ± 1.9% and the IC50 [3, 7] was over 100 µM. The “TRPV1 Efficacy (% IM 4 μM)” value [3] was under 10%.
For CCCCCCC(C)(C)c1cc(O)c2c(c1)OC(C)(CCC=C(C)C)C=C2 (stereo not drawn) [8b, Depentyl-α,α-dimethylheptyl-cannabichromene], the EC50 [1] was over 50 µM, the IC50 [1, 9] was 22.6 ± 0.2 µM and the “TRPV2 Efficacy (% IM 4 μM)” value [1] was 76.1 ± 0.6%. The EC50 [2] was 0.76 ± 0.12 µM, the IC50 [2] was 0.32 ± 0.01 µM and the “TRPA1 Efficacy (%ITC 100 μM)” value ([2]; HEK-293) was 120.4 ± 2.8%. The EC50 [3] was 12.8 ± 0.9 µM, the IC50 [3] was over 100 µM and the “TRPV1 Efficacy (% IM 4 μM)” value [3] was 18.9 ± 0.2%.
In the case of CCCCCCC(C)(C)c1cc(O)c(C/C=C(\C)CCC=C(C)C)c(O)c1 [7b, Depentyl-α,α-dimethylheptyl-cannabigerol], the EC50 [1] is reported as 9.8 ± 0.6 µM, the IC50 [1, 9] is reported as 39.4 ± 4.5 µM and the “TRPV2 Efficacy (% IM 4 μM)” value [1] is reported as 65.3 ± 0.7%. For the same compound, the IC50 [2, 5] was 1.7 ± 0.15 µM, the EC50 [2, 6] was 9.1 ± 2 µM and the “TRPA1 Efficacy (%ITC 100 μM)” value ([2]; HEK-293) was 99.2 ± 4.5%. For the same compound, the IC50 [3] was over 100 µM, the “IC50 TRPV1” value [3, 8] was “inactive” and the “TRPV1 Efficacy (% IM 4 μM)” value [3] was under 10%.

— PMC8391922, “The Combined Effect of Branching and Elongation on the Bioactivity Profile of Phytocannabinoids. Part I: Thermo-TRPs” (Biomedicines, 2021)
